Values joined by “and” are separate entries in the source; they are usually repeats but may differ in a detail not shown here. Identical values can stand only once. Starred links: 1 amine or outer side, 2 acyl side, 3 side chain; linkers in the order of their positions; H or OH if unused. Positions of bridges follow the written chain, without caps; N, C: chain ends. Residues, ends and D or L forms follow the SMILES beside them. *: point of attachment. C18 diacid = O=C(O)CCCCCCCCCCCCCCCCC(=O)*; γGlu = O=C(O)[C@H](CCC(=O)[*:2])N[*:1]; AEEA = NCCOCCOCC(=O)O
Assay: High-Molecular-Weight-Protein (HMWP) formation by SEC-UPLC
Assay type: physicochemical
Conditions: increase over two weeks at 37° C., pH 4.0
Experimental: In order to assess the propensity of CNP compounds to form covalent dimers or oligomers when formulated the High-Molecular-Weight-Protein content of CNP compound formulations at pH 4.0 and 6.5 were determined.
Procedure: The relative amount of covalent HMWP was assessed using SEC-UPLC. SEC-UPLC was conducted using a Waters UPLC Protein BEH SEC column, 125A, 4.6×150 mm, 1.7 μm, with isocratic elution (0.3 M NaCl, 10 mM NaH2PO4 and 5 mM H3PO4, 50% (v/v) isopropanol, pH 2.4) with a flow rate of 0.3 mL/min, a column temperature at 50° C. with UV-detection at 215 nm. The total area of peaks eluting prior to the monomeric main peak was termed HMWP and given on a percentage scale relative to the total peptide peak area.
(§1) Results: HMWP Formation Following 2-Weeks Quiescent Incubation at 37° C.: Samples at pH 4.0 were prepared as described in Example 5 and the amount of HMWP was determined as described above. Samples were incubated for two weeks at 37° C. and the amount of HMWP was determined again. The increase in HMWP over two weeks incubation at 37° C. are reported in Table 10 (in case the incubation period deviated from two weeks the increase in HMWP was normalized to two weeks assuming a constant formation rate).
as §1, with “Samples” for “Results: HMWP Formation Following 2-Weeks Quiescent Incubation at 37° C.: Samples”, “6.5” for “4.0”, “11” for “10”

SMILES | 2-Week HMWP formation at pH 4.0 (%), % relative to total peak area
CC[C@H](C)[C@@H]1NC(=O)[C@H](CCCNC(=N)N)NC(=O)[C@H](CC(=O)O)NC(=O)[C@H](CC(C)C)NC(=O)[C@@H]2CCCN2C(=O)[C@H](CC(C)C)NC(=O)CNC(=O)[C@H](Cc2ccccc2)NC(=O)[C@@H](NC(=O)CNC(=O)[C@H](CCCCN)NC(=O)[C@H](CO)NC(=O)[C@H](CC(C)C)NC(=O)CNC(=O)[C@H](CCCCN)NC(=O)[C@H](CCCCN)NC(=O)[C@H](CCC(N)=O)NC(=O)[C@H](C)NC(=O)CNC(=O)[C@H](CCCCN)NC(=O)[C@H](Cc2ccc(O)cc2)NC(=O)[C@H](CCCCN)NC(=O)[C@H](CCCNC(=N)N)NC(=O)[C@H](C)NC(=O)COCCOCCNC(=O)COCCOCCNC(=O)CC[C@H](NC(=O)CC[C@H](NC(=O)CC[C@H](NC(=O)CC[C@H](NC(=O)CC[C@H](NC(=O)CCCCCCCCCCCCCCCCC(=O)O)C(=O)O)C(=O)O)C(=O)O)C(=O)O)C(=O)O)CSSC[C@@H](C(=O)O)NC(=O)CNC(=O)[C@H](CC(C)C)NC(=O)CNC(=O)[C@H](CO)NC(=O)[C@H](CC(C)C)NC(=O)[C@H](CO)NC(=O)CNC1=O [compound 1470] ({C18 diacid-γGlu-γGlu-γGlu-γGlu-γGlu-AEEA-AEEA}-ARKYKGAQKKGLSKGCFGLPLDRIGSLSGLGC-OH; disulfide 16-32) | 1.75%
CC[C@H](C)[C@@H]1NC(=O)[C@H](CCCNC(=N)N)NC(=O)[C@H](CC(=O)O)NC(=O)[C@H](CC(C)C)NC(=O)[C@@H]2CCCN2C(=O)[C@H](CC(C)C)NC(=O)CNC(=O)[C@H](Cc2ccccc2)NC(=O)[C@@H](NC(=O)CNC(=O)[C@H](CO)NC(=O)[C@H](CO)NC(=O)[C@H](CC(C)C)NC(=O)CNC(=O)[C@H](CCCCN)NC(=O)[C@H](CCCCN)NC(=O)[C@H](CCC(N)=O)NC(=O)[C@H](C)NC(=O)CNC(=O)[C@H](CCCCN)NC(=O)[C@H](Cc2ccc(O)cc2)NC(=O)[C@H](CCCCN)NC(=O)[C@H](CCCNC(=N)N)NC(=O)[C@H](C)NC(=O)[C@H](CCC(N)=O)NC(=O)[C@@H]2CCCN2C(=O)[C@H](Cc2c[nH]cn2)NC(=O)[C@H](CCC(=O)O)NC(=O)[C@H](CCC(N)=O)NC(=O)COCCOCCNC(=O)COCCOCCNC(=O)CC[C@H](NC(=O)CC[C@H](NC(=O)CC[C@H](NC(=O)CC[C@H](NC(=O)CCCCCCCCCCCCCCCCC(=O)O)C(=O)O)C(=O)O)C(=O)O)C(=O)O)CSSC[C@@H](C(=O)O)NC(=O)CNC(=O)[C@H](CC(C)C)NC(=O)CNC(=O)[C@H](CO)NC(=O)[C@H](CC(C)C)NC(=O)[C@H](CO)NC(=O)CNC1=O [compound 1473] ({C18 diacid-γGlu-γGlu-γGlu-γGlu-AEEA-AEEA}-QEHPQARKYKGAQKKGLSSGCFGLPLDRIGSLSGLGC-OH; disulfide 21-37; C-terminus assumed) | 0.9% and 1.26%
CC[C@H](C)[C@@H]1NC(=O)[C@H](CCCNC(=N)N)NC(=O)[C@H](CC(=O)O)NC(=O)[C@H](CC(C)C)NC(=O)[C@@H]2CCCN2C(=O)[C@H](CC(C)C)NC(=O)CNC(=O)[C@H](Cc2ccccc2)NC(=O)[C@@H](NC(=O)CNC(=O)[C@H](CCCCN)NC(=O)[C@H](CO)NC(=O)[C@H](CC(C)C)NC(=O)CNC(=O)[C@H](CCCCN)NC(=O)[C@H](CCCCN)NC(=O)[C@H](CCC(N)=O)NC(=O)[C@H](C)NC(=O)CNC(=O)[C@H](CCCCN)NC(=O)[C@H](Cc2ccc(O)cc2)NC(=O)[C@H](CCCCN)NC(=O)[C@H](CCCNC(=N)N)NC(=O)[C@H](C)NC(=O)[C@H](CCC(N)=O)NC(=O)[C@@H]2CCCN2C(=O)[C@H](Cc2c[nH]cn2)NC(=O)[C@H](CCC(=O)O)NC(=O)[C@H](CCC(N)=O)NC(=O)COCCOCCNC(=O)COCCOCCNC(=O)CC[C@H](NC(=O)CC[C@H](NC(=O)CC[C@H](NC(=O)CC[C@H](NC(=O)CC[C@H](NC(=O)CCCCCCCCCCCCCCCCC(=O)O)C(=O)O)C(=O)O)C(=O)O)C(=O)O)C(=O)O)CSSC[C@@H](C(=O)O)NC(=O)CNC(=O)[C@H](CC(C)C)NC(=O)CNC(=O)[C@H](CO)NC(=O)[C@H](CC(C)C)NC(=O)[C@H](CO)NC(=O)CNC1=O [compound 1474] ({C18 diacid-γGlu-γGlu-γGlu-γGlu-γGlu-AEEA-AEEA}-QEHPQARKYKGAQKKGLSKGCFGLPLDRIGSLSGLGC-OH; disulfide 21-37; C-terminus assumed) | 1.6%
CC[C@H](C)[C@@H]1NC(=O)[C@H](CCCNC(=N)N)NC(=O)[C@H](CC(=O)O)NC(=O)[C@H](CC(C)C)NC(=O)[C@@H]2CCCN2C(=O)[C@H](CC(C)C)NC(=O)CNC(=O)[C@H](Cc2ccccc2)NC(=O)[C@@H](NC(=O)CNC(=O)[C@H](CCC(N)=O)NC(=O)[C@H](CO)NC(=O)[C@H](CC(C)C)NC(=O)CNC(=O)[C@H](CCCCN)NC(=O)[C@H](CCCCN)NC(=O)[C@H](CCC(N)=O)NC(=O)[C@H](C)NC(=O)CNC(=O)[C@H](CCCCN)NC(=O)[C@H](Cc2ccc(O)cc2)NC(=O)COCCOCCNC(=O)COCCOCCNC(=O)COCCOCCNC(=O)COCCOCCNC(=O)CC[C@H](NC(=O)CC[C@H](NC(=O)CCCCCCCCCCCCCCCCC(=O)O)C(=O)O)C(=O)O)CSSC[C@@H](C(=O)O)NC(=O)CNC(=O)[C@H](CC(C)C)NC(=O)CNC(=O)[C@H](CO)NC(=O)[C@H](CC(C)C)NC(=O)[C@H](CO)NC(=O)CNC1=O [compound 1478] ({C18 diacid-γGlu-γGlu-AEEA-AEEA-AEEA-AEEA}-YKGAQKKGLSQGCFGLPLDRIGSLSGLGC-OH; disulfide 13-29; C-terminus assumed) | 1.98%
CC[C@H](C)[C@@H]1NC(=O)[C@H](CCCNC(=N)N)NC(=O)[C@H](CCC(=O)O)NC(=O)[C@H](CC(C)C)NC(=O)[C@@H]2CCCN2C(=O)[C@H](CC(C)C)NC(=O)CNC(=O)[C@H](Cc2ccccc2)NC(=O)[C@@H](NC(=O)CNC(=O)[C@H](CCC(N)=O)NC(=O)[C@H](CO)NC(=O)CNC(=O)CNC(=O)[C@H](CCCCN)NC(=O)[C@H](CCCCN)NC(=O)[C@H](CCC(N)=O)NC(=O)[C@H](C)NC(=O)CNC(=O)[C@H](CCCCN)NC(=O)[C@H](Cc2ccc(O)cc2)NC(=O)COCCOCCNC(=O)COCCOCCNC(=O)COCCOCCNC(=O)COCCOCCNC(=O)CC[C@H](NC(=O)CC[C@H](NC(=O)CCCCCCCCCCCCCCCCC(=O)O)C(=O)O)C(=O)O)CSSC[C@@H](C(=O)O)NC(=O)CNC(=O)[C@H](CC(C)C)NC(=O)CNC(=O)[C@H](CO)NC(=O)[C@H](CC(C)C)NC(=O)[C@H](CO)NC(=O)CNC1=O [compound 1489] ({C18 diacid-γGlu-γGlu-AEEA-AEEA-AEEA-AEEA}-YKGAQKKGGSQGCFGLPLERIGSLSGLGC-OH; disulfide 13-29) | 2.12%

Same assay, conditions: increase over two weeks at 37° C., pH 6.5

SMILES | 2-Week HMWP formation at pH 6.5 (%), % relative to total peak area [%]
CC[C@H](C)[C@@H]1NC(=O)[C@H](CCCNC(=N)N)NC(=O)[C@H](CCC(=O)O)NC(=O)[C@H](CC(C)C)NC(=O)[C@@H]2CCCN2C(=O)[C@H](CC(C)C)NC(=O)CNC(=O)[C@H](Cc2ccccc2)NC(=O)[C@@H](NC(=O)CNC(=O)[C@H](CCC(N)=O)NC(=O)[C@H](CO)NC(=O)[C@H](CC(C)C)NC(=O)CNC(=O)[C@H](CCCCN)NC(=O)[C@H](CCCCN)NC(=O)[C@H](CCC(N)=O)NC(=O)[C@H](C)NC(=O)CNC(=O)[C@H](CCCCN)NC(=O)[C@H](Cc2ccc(O)cc2)NC(=O)[C@H](CCCCN)NC(=O)[C@H](CCCNC(=N)N)NC(=O)[C@H](C)NC(=O)COCCOCCNC(=O)COCCOCCNC(=O)COCCOCCNC(=O)COCCOCCNC(=O)CC[C@H](NC(=O)CC[C@H](NC(=O)CC[C@H](NC(=O)CC[C@H](NC(=O)CC[C@H](NC(=O)CCCCCCCCCCCCCCCCC(=O)O)C(=O)O)C(=O)O)C(=O)O)C(=O)O)C(=O)O)CSSC[C@@H](C(=O)O)NC(=O)CNC(=O)[C@H](CC(C)C)NC(=O)CNC(=O)[C@H](CO)NC(=O)[C@H](CC(C)C)NC(=O)[C@H](CO)NC(=O)CNC1=O [compound 1477] ({C18 diacid-γGlu-γGlu-γGlu-γGlu-γGlu-AEEA-AEEA-AEEA-AEEA}-ARKYKGAQKKGLSQGCFGLPLERIGSLSGLGC-OH; disulfide 16-32) | 1.83
CC[C@H](C)[C@@H]1NC(=O)[C@H](CCCNC(=N)N)NC(=O)[C@H](CC(=O)O)NC(=O)[C@H](CC(C)C)NC(=O)[C@@H]2CCCN2C(=O)[C@H](CC(C)C)NC(=O)CNC(=O)[C@H](Cc2ccccc2)NC(=O)[C@@H](NC(=O)CNC(=O)[C@H](CCC(N)=O)NC(=O)[C@H](CO)NC(=O)[C@H](CC(C)C)NC(=O)CNC(=O)[C@H](CCCCN)NC(=O)[C@H](CCCCN)NC(=O)[C@H](CCC(N)=O)NC(=O)[C@H](C)NC(=O)CNC(=O)[C@H](CCCCN)NC(=O)[C@H](Cc2ccc(O)cc2)NC(=O)COCCOCCNC(=O)COCCOCCNC(=O)COCCOCCNC(=O)COCCOCCNC(=O)CC[C@H](NC(=O)CC[C@H](NC(=O)CC[C@H](NC(=O)CCCCCCCCCCCCCCCCC(=O)O)C(=O)O)C(=O)O)C(=O)O)CSSC[C@@H](C(=O)O)NC(=O)CNC(=O)[C@H](CC(C)C)NC(=O)CNC(=O)[C@H](CO)NC(=O)[C@H](CC(C)C)NC(=O)[C@H](CO)NC(=O)CNC1=O [compound 9480] ({C18 diacid-γGlu-γGlu-γGlu-AEEA-AEEA-AEEA-AEEA}-YKGAQKKGLSQGCFGLPLDRIGSLSGLGC-OH; disulfide 13-29) | 2.65
